{
  "source": "patent US7361279B2",
  "about": "“Removing metals from solution using metal binding compounds and sorbents therefor” (priority 2002, dated 2008)",
  "key": {"[1]": {"assay": "Batch microcosm immobilization of zinc on Calgon MRX-P GAC", "settings": "pH 3, ligand to metal ratio 30:1, carbon 5 g/L", "procedure": "(§1) Experiments were executed to bracket a range of MeBT and carbon concentrations near the sorptive capacity of calgon MRX, as judged by Freundlich isotherm modeling (c.a. 49 mg/g). Lead, copper, and zinc were chosen as models to study the complexation behavior and sorptive interactions when MeBT is bound to different transition metals. Different ratios of ligand (MeBT) and metal were chosen based on the coordination stichiometry of MeBT with each metal. The ionic strength was held constant at 0.0 1M, and H2SO4 and HNO3 were used as background electrolytes. Lead, copper and zinc concentrations of 10 mg/L and carbon concentrations of 5 g/L were employed for batch microcosm assays.\nMicrocosms used for benzotriazole-metal immobilization experiments on GAC. Microcosms consisted of 250 ml Erlenmeyer flasks containing 75 mls of test solution with and without activated carbon. 75 milliliter aliquots of MeBT solution containing known GAC masses were placed in 250 ml Erlenmeyer flask. […] Following equilibration, the samples were centrifuged and the supernatant was analyzed for both metal and 5-MeBT content. […] The resulting aqueous metal concentrations were measured by DPP and confirmed by inductive coupled plasma/atomic emission spectroscopy (ARL 3410 ICP/AES) in an EPA certified laboratory in the Geology department at University of Colorado. 5-MeBT was measured by both DPP and HPLC methods."}, "[2]": {"assay": "Batch microcosm immobilization of lead on Calgon MRX-P GAC", "procedure": "as §1\n(§2) Microcosms used for benzotriazole-metal immobilization experiments on GAC. Microcosms consisted of 250 ml Erlenmeyer flasks containing 75 mls of test solution with and without activated carbon. 75 milliliter aliquots of MeBT solution containing known GAC masses were placed in 250 ml Erlenmeyer flask. The samples were allowed to equilibrate on a shaker table at 15° C. for no more than 24 hours. Following equilibration, the samples were centrifuged and the supernatant was analyzed for both metal and 5-MeBT content. Metal-ligand molar ratios of 1:0, 1:2, 1:10, and 1:30 were employed. Identical experiments were conducted for each metal in the absence of GAC for the same metal: ligand ratios to determine any possible metal removal effects associated with precipitation. The resulting aqueous metal concentrations were measured by DPP and confirmed by inductive coupled plasma/atomic emission spectroscopy (ARL 3410 ICP/AES) in an EPA certified laboratory in the Geology department at University of Colorado. 5-MeBT was measured by both DPP and HPLC methods."}, "[3]": {"assay": "Removal of benzotriazoles from solution by granular activated carbon", "format": "physicochemical", "settings": "for soluble 5-MeBT content after exposure to GAC (HPLC): after 24 hours", "procedure": "(§3) A spectra-Physics high performance liquid chromatograph (HPLC) fitted with a UV detector (λ=254 nm) was used. 5-MeBT analysis was performed isocratically using two Zorbax Rx-C8 4.6×250 mm columns in series (MacMod Analytical, Inc., Chadds Ford, Pa., USA). The eluent consisted of a phosphate buffer mixed in a 70:30 ratio with HPLC grade acetylnitrile at a flow rate of 1.5 ml/minute with a sample injection volume of 200 μl. All samples were centrifuged at 10,000×g for 5 minutes prior to analysis.\nUsing simple time-series analysis of soluble methylbenzotriazole, the minimum time required for complete sorption was determined. Each experiment reached equilibrium before 48 hours, using a criteria of no more than 4% change in aqueous concentration during the observation period. Mass balances were used to determine the equilibrium portioning of MeBT in the microcosms system. Aqueous concentration data was used to calculate the amount of MeBT associated with GAC by differences. The equilibrium partioning data were then inverted and log-transformed, and tested against widely-accepted sorption models for “best-fit”.\nas §3, with “chromatography” for “chromatograph”, “(HPLC)” for “(HPLC) fitted”, “UV-Vis Detector” for “a UV detector”, “Methylbenzotriazole” for “5-MeBT”\nas §2"}, "[4]": {"assay": "Desorption of MeBT from GAC surfaces", "format": "physicochemical", "settings": "30 day period, metal- and benzotriazole-free solutions, pH 2-5, varying ionic strength", "procedure": "After sorption, GAC was removed, washed with water, and then transferred to a clean electrolyte solution at different pH (pH 2-4) to investigate the stability of the metal: 5-MeBT complexes once immobilized on activated carbon. After 24 hours of equilibration and at time intervals 0, 7, and 30 days, 5 mls of each sample was centrifuged and analyzed for both metal and 5-MeBT content using both ICP/EAS and HPLC.\nThe potential for the desorption of MeBT from GAC surfaces was monitored over a 30 day period."}, "[5]": {"assay": "Differential pulse polarography, Zn(II) complexation", "format": "binding", "settings": "DPP, increasing MeBT", "description": "(§4) Such an approach was applied to estimate the strength of metal-benzotriazole interactions in acidic solutions. The current that flows during a single life time of a dropping mercury electrode (DME) is held at a given potential in a polarograph and is described by the Ilkovic Equation: Id=708nDo^1/2C0*m^2/3t^1/6 (2)\n(§5) In their classic report, Deford and Hume (1951) defined a series of functions, where the change in reduction potential of a target ion, measured with a polarograph, can be directely related to its complexation stability by the progressive addition of a known ligand.\n(§6) βmxj (the overall stability constant), and j (maximum number of ligands coordinated with a metal through a reversible series of complexing interactions), were determined for Cu(II), Pb(II) and Zn(II) interactions with benzotriazoles. The present application reports the development and use of polarographic methods for quantification of benzotriazole complexes to study their potential for immobilizing metals on activated carbon surfaces.\nPolarographic and voltammetric measurements were performed with a CV-50W Voltametric analyzer fitted with a controlled growth mercury electrode; this multimode electrode was used in a static mercury drop electrode (SMDE) mode. […]"}, "[6]": {"assay": "Differential pulse polarography, stability constants (DeFord-Hume, Lingane), Cu(II)", "format": "binding", "description": "as §4, §5\n(§7) Stability constants are obtained as follows where F0(x)=ΣβnCL^n=β0β1CL+β2CL^2+ . . . +βnCL^n (7)\n(§8) In order to obtain β1, . . . , βn, a widely-accepted graphical extrapolation method derived by Leden (1941) was applied. Sequential plots of equation (7) (Fn(X) vs. C) yielded a family of curves, through which coordination chemistry between metals and benzotriazoles was determined.\n(§9) The maximum coordination number was also independently determined using the Lingane method reported by Crow (1969) with a plot of ΔE1/2 Vs. Log Cx relationship, using the Lingane equation: […]\nas §6\n(§10) Polarographic and voltammetric measurements were performed with a CV-50W Voltametric analyzer fitted with a controlled growth mercury electrode; this multimode electrode was used in a static mercury drop electrode (SMDE) mode. The mercury electrode was multiplexed using BAS commercial software (Bioanalytical Systems, Inc., Lafayette, Ind., USA) a platinum auxiliary electrode and an Ag/AgCl (3 M KCl) reference electrode. All potentials were normalized to the Ag/AgCl electrode. A system scan rate of 5 mV s^−1 was used with a drop time of 1 sec. For DPP, the pulse amplitude was 100 mV with a sample width of 17 msec. A repeatable drop size was produced using a borosilicate capillary tube. The solenoid activation setting was 100 ms for all runs.\n(§11) For the stability constant calculations, a 15 ml supporting electrolyte solution was pipetted into the voltammetric cell and the metal salt addition was adjusted to yield a final concentration of approximately 10^−5 M. The ligand (5-methybenzotriazole) was then added in increasing concentration from 0 to 1×10^−2 M. Polarograms were constructed, and the shift in the half wave potential was recorded after each ligand addition. All DPP measurements were made in triplicate."}, "[7]": {"assay": "Batch microcosm immobilization of copper on Calgon MRX-P GAC", "procedure": "as §1, §2"}, "[8]": {"settings": "cited from earlier work"}, "[9]": {"assay": "Differential pulse polarography, stability constants (DeFord-Hume, Lingane), Pb(II)", "format": "binding", "description": "as §4, §5, §7, §8, §9, §6, §10, §11"}, "[10]": {"settings": "Cu(II) 5 × 10^−5 M, 5-MeBT 0-3 × 10^−3 M"}, "[11]": {"settings": "[Cu(II)]=5×10^−5M, pH=2.5, T=25° C."}, "[12]": {"settings": "Pb(II) 3 × 10^−5 M, 5-MeBT 0-7 × 10^−3 M"}, "[13]": {"settings": "[Pb(II)]=3×10^−5M, pH=3, T=25° C."}},
  "note": "Several values for one entry are separate records, joined by “and”; a condition that tells them apart may be missing. Equal entries are not always repeated.",
  "data": [
    {"compound": "Cc1ccc2[nH]nnc2c1", "note": "[5-MeBT, 5-methylbenzotriazole]", "values": [
      {"measurement": "Zn(II) removal efficiency, maximum", "setting": "[1]", "result": 9, "unit": "%"},
      {"measurement": "share of lead sequestered on GAC associated with an MeBT precipitate", "setting": "[2]", "result": "approximately 25%"},
      {"measurement": "share of lead sequestered on GAC associated with soluble MeBT complex", "setting": "[2]", "result": "~75", "unit": "%"},
      {"measurement": "Pb(II) removal in the absence of GAC (precipitation)", "setting": "[2]; pH 2, MeBT to Pb(II) molar ratio 2", "result": "approximately 2.5%"},
      {"measurement": "Pb(II) removal in the absence of GAC (precipitation)", "setting": "[2]; pH 2, MeBT to Pb(II) molar ratio 10", "result": "~6", "unit": "%"},
      {"measurement": "Pb(II) removal in the absence of GAC (precipitation)", "setting": "[2]; pH 2, MeBT to Pb(II) molar ratio 30", "result": "~12", "unit": "%"},
      {"measurement": "precipitation-associated Pb(II) removal", "setting": "[2]; pH 3, absence of GAC", "result": "about 20%"},
      {"measurement": "Pb(II) removal efficiency, maximum", "setting": "[2]; pH 3, ligand to metal ratio approximately 30:1, carbon 5 g/L", "result": 82, "unit": "%"},
      {"measurement": "time to sorption equilibrium", "setting": "[3]; 1% GAC w/vol, 10-2000 mg/L MeBT, no more than 4% change criterion", "result": "< 48", "unit": "h"},
      {"measurement": "affinity for granular activated carbon compared with benzene", "setting": "[3]; Calgon MRX 10×30 mesh, pH 2 to 5", "result": "approximately the same as that observed for benzene"},
      {"measurement": "soluble 5-MeBT content after exposure to GAC (HPLC)", "setting": "[3]; copper microcosms", "result": "less than 0.25 mg/L"},
      {"measurement": "soluble 5-MeBT content after exposure to GAC (HPLC)", "setting": "[3]; lead microcosms", "result": "less than 0.25 mg/L"},
      {"measurement": "soluble 5-MeBT content after exposure to GAC (HPLC)", "setting": "[3]; zinc microcosms", "result": "less than 0.25 mg/L"},
      {"measurement": "desorption of 5-MeBT from saturated Calgon MRX-P", "setting": "[4]", "result": "did not liberate measurable amounts"},
      {"measurement": "potential shift on addition of MeBT to zinc-containing solutions", "setting": "[5]", "result": "no potential shifts"},
      {"measurement": "potential shift on addition of MeBT to zinc-containing solutions", "setting": "[5]; listed as methybenzotriazole", "result": "no significant potential shifts"},
      {"measurement": "β (copper complexing agent)", "setting": "[6]", "result": "~10^15"},
      {"measurement": "DeFord-Hume method Log β1", "setting": "[6]; [10]", "result": 12.8},
      {"measurement": "DeFord-Hume method Log β2", "setting": "[6]; [10]", "result": 15.8},
      {"measurement": "Lingane method Log βn", "setting": "[6]; [10]", "result": 15.8},
      {"measurement": "Maximum coordination number (ligand: metal ratio)", "setting": "[6]; [10]", "result": 2},
      {"measurement": "β1 (first complex stability) from intercept of F1(X)", "setting": "[6]; [11]", "result": "~6×10^12"},
      {"measurement": "β2 (overall stability constant) from slope of F1(X)", "setting": "[6]; [11]", "result": "~7×10^15"},
      {"measurement": "β2 from intercept of F2(X) vs. [5-MeBT]", "setting": "[6]; [11]", "result": "7×10^15"},
      {"measurement": "share of copper sequestered on GAC associated with an MeBT precipitate", "setting": "[7]; pH 2", "result": "almost none"},
      {"measurement": "Cu(II) removal efficiency, maximum", "setting": "[7]; pH 2, ligand to metal ratio 30:1, carbon 5 g/L", "result": 13, "unit": "%"},
      {"measurement": "share of copper removal associated with an MeBT precipitate", "setting": "[7]; pH 3", "result": "approximately 18%"},
      {"measurement": "Cu(II) removal", "setting": "[7]; pH 3, MeBT to Cu(II) molar ratios of 2, 10 and 30", "result": "32-35%"},
      {"measurement": "share of copper removal associated with an MeBT precipitate", "setting": "[7]; pH 4", "result": "~40", "unit": "%"},
      {"measurement": "first pKa (dissociation)", "setting": "[8]", "result": "~2 and 2"},
      {"measurement": "second pKa (dissociation)", "setting": "[8]", "result": "~9"},
      {"measurement": "pKa", "setting": "[8]; weak organic acid", "result": "approximately 8.8"},
      {"measurement": "DeFord-Hume method Log β1", "setting": "[9]; [12]", "result": 3.3},
      {"measurement": "Lingane method Log βn", "setting": "[9]; [12]", "result": 3.8},
      {"measurement": "Maximum coordination number (ligand: metal ratio)", "setting": "[9]; [12]", "result": 1},
      {"measurement": "β1 from intercept of F1(X) vs. [MeBT]", "setting": "[9]; [13]", "result": "~1.8×10^3"},
      {"measurement": "β1 from slope of Fo(X) vs. [MeBT]", "setting": "[9]; [13]", "result": "~2.2×10^3"}
    ]}
  ]
}
